Test results from patent publication US10098340B2, “Method for preserving cells and cell cultures” (Rich Technologies Holding Company, LLC, priority 2011, dated 2018).

Columns and labels:
Jurkat cells [1] = test: Caspase 3 activity (apoptosis) in Jurkat cells after storage under xenon pressure; format: cell-based; details: 4 Atm excessive pressure of gas comprising xenon, 24 hrs of storage, with and without doxorubicin
U-937 cells = test: JC-1 staining of U-937 cells with flow cytometry (state of mitochondria, apoptosis) after storage under xenon; format: cell-based, human
Protocol: In order to obtain the data presented in these Examples, Leukemic monocyte lymphoma cells U-937 were grown in RPMI-1640 medium supplied with 15% fetal bovine serum and 10 mkg/ml gentamicin in the atmosphere of 5% CO2 at 37° C. Petri dishes containing the cell culture in exponential phase of growth were placed into a holding rack and transferred into containers having an inner volume of approximately 1.5 L which were designed for storage in hyperbaric conditions. The mixture of gases Xe—CO2 (95% and 5% respectively) was used for buildup of pressure of 0.5 to 4.0 Atm above ambient pressure over a period of 5-10 minutes, with particular parameters presented in connection with the Figures presented herein. The temperature was held from 22° C. to 37° C. in this embodiment of the invention Gases were mixed in a separate tank (or in the container/tube) based on calculation of their partial pressure. The container with Petri dishes was kept at this temperature and pressure for 2 hrs. Then the container was transferred to a refrigerator with decreased temperature (from 0.1° C. to +5° C.), while maintaining the pressure. The container was held at under these conditions for approximately 4 weeks. After that, the pressure was released and the container holding the cells was kept for 7 days in a household at a temperature of +4° C. to +10° C. and atmospheric pressure.
Accordingly, these cells respond to a large number of both extracellular and intracellular proapoptotic signals and have been used as model cells for analyzing apoptosis (Pimentel-Muiños F X, Seed B. Regulated commitment of TNF receptor signaling: a molecular switch for death or activation. Immunity. 1999 December; 11 (6):783-93; Karas M, Zaks T Z, Liu J L, LeRoith D. T cell receptor-induced activation and apoptosis in cycling human T cells occur throughout the cell cycle. Mol Biol Cell. 1999 December; 10 (12):4441-50; Valavanis C, Hu Y, Yang Y, Osborne B A, Chouaib S, Greene L, Ashwell J D, Schwartz L M. Model cell lines for the study of apoptosis in vitro. Methods Cell Biol. 2001; 66:417-36).

Jurkat cells [2] = test: Live Jurkat cell count (trypan blue) after transfer from storage to standard cultivation conditions; format: cell-based; details: 24 hrs under standard conditions (37° C., 5% CO2) after storage, Xe+37 doxo and Xe+4 doxo vs control, FIG. 3

Compound: [Xe] [xenon]
- development of spontaneous and induced (Doxo) apoptosis, caspase 3 activity (Jurkat cells [1]; FIG. 4): prevented development of both spontaneous (series no Doxo in the diagram) and induced (series Doxo in the diagram) apoptosis
- development of spontaneous and induced (Doxo) apoptosis, caspase 3 activity (Jurkat cells [1]; FIG. 4, listed as Xenon): prevented development of both spontaneous (no Doxo and non-treated) and induced (Doxo) apoptosis
- development of spontaneous and induced (Doxo) apoptosis (U-937 cells; 4 Atm over ambient pressure Xe, with and without doxorubicin, FIG. 5): prevented development of both spontaneous (no Doxo and non-treated) and induced (Doxo) apoptosis
- damage of mitochondria compared to control (U-937 cells; JC-1, after 7 days of storage, control = no gas, 37° C.): significantly decreased damage of mitochondria
- percentage of doxorubicin-treated cells with undamaged mitochondria (U-937 cells; JC-1, vs cells stored without xenon, after 24 hrs and 7 days of storage, FIG. 5): significantly higher
- action on cellular mitochondria (U-937 cells; xenon both in combination with cooling and without cooling): exerted protective action on cellular mitochondria
- cell growth (number of live cells) after exposure to doxorubicin (Jurkat cells [2]): improved cell growth after exposure to doxorubicin
